Test results published in patent publication US20230167088A1, “1-PYRAZINYLPYRAZOLYL-3-OXYALKYL ACIDS AND THEIR DERIVATIVES, AND THEIR USE FOR CONTROL OF UNDESIRED PLANT GROWTH” (BAYER AKTIENGESELLSCHAFT, priority 2020, published 2023).

How the values were obtained:
LOLRI = assay: Herbicidal post-emergence action 1a (greenhouse pots, visual rating); format: in vivo, Lolium rigidum; conditions: rated visually about 3 weeks after treatment, 100% = plants have died, 0% = like control plants
Method in brief: (§1)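 Weeds and crops sown in sandy loam in greenhouse pots were sprayed post-emergence at the one-leaf stage (2–3 weeks after sowing) with WP or EC formulations plus 0.5% additive at 600 l/ha water, 320 and/or 80 g/ha. About 3 weeks later damage was rated visually against untreated controls (0% = no effect, 100% = dead).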

ECHCG = assay: Herbicidal pre-emergence action 2a (greenhouse pots, visual scoring); format: in vivo, Echinochloa crus-galli; conditions: dosage 320 g/ha, visual scoring after about 3 weeks
Method in brief: (§2)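 Sow, cover with soil, spray soil surface (WP or EC in water, 0.5% additive, 600 l/ha; 320 and/or 80 g/ha), grow in greenhouse ~3 weeks, score visually in % against untreated controls.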

MATIN [1] = assay: Herbicidal post-emergence action 1a (greenhouse pots, visual rating); format: in vivo, Matricaria inodora; conditions: visual rating about 3 weeks after treatment
Method in brief: as §1

VERPE [2] = assay: Herbicidal pre-emergence action 2a (greenhouse pots, visual scoring); format: in vivo, Veronica persica; conditions: dosage 320 g/ha, visual scoring after about 3 weeks vs untreated controls
Method in brief: as §2

MATIN [3] = assay: as above; format: in vivo, Matricaria inodora; conditions: dosage 320 g/ha, visual scoring after about 3 weeks vs untreated controls
Method in brief: as §2

POAAN = assay: Herbicidal pre-emergence action 2b (doubly sown, 1280 g/ha); format: in vivo, Poa annua; conditions: doubly sown pots, dosage 1280 g/ha, visual scoring after about 3 weeks
Method in brief: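 Pots of sandy loam doubly sown with one monocot and one dicot weed species, covered, then soil surface sprayed pre-emergence with WP or EC formulations plus 0.5% additive at 600 l/ha water. Greenhouse-grown about 3 weeks; activity scored visually as % versus untreated controls (100% = dead).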

MATIN [4] = assay: Herbicidal post-emergence action 1b (twin sowing, 1280 g/ha); format: in vivo, Matricaria inodora; conditions: dosage 1280 g/ha, visual rating about 3 weeks after treatment
Method in brief: (§3)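 Twin-sown weeds in sandy loam, greenhouse-grown 2–3 weeks, sprayed post-emergence at one-leaf stage with WP/EC formulations plus 0.5% additive at 600 L/ha water. Damage rated visually about 3 weeks later versus untreated controls (100% = plants dead, 0% = like control).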

harmful plants = assay: Herbicidal pre-emergence action 2a, summary across species; format: in vivo; conditions: Tables B1 to B15 (320 g/ha and/or 80 g/ha)
Method in brief: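 Pre-emergence greenhouse test: WP or EC formulations sprayed onto soil covering sown weed and crop seeds, 600 l/ha water with 0.5% additive, at 320 g/ha and/or 80 g/ha. Damage scored visually after about 3 weeks as % versus untreated control (100% = plants dead).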

AMARE = assay: Herbicidal post-emergence action 1a (greenhouse pots, visual rating); format: in vivo, Amaranthus retroflexus; conditions: visual rating about 3 weeks after treatment
Method in brief: as §1

VERPE [5] = assay: as above; format: in vivo, Veronica persica; conditions: visual rating about 3 weeks after treatment
Method in brief: as §1

STEME = assay: Herbicidal post-emergence action 1b (twin sowing, 1280 g/ha); format: in vivo, Stellaria media; conditions: dosage 1280 g/ha, visual rating about 3 weeks after treatment
Method in brief: as §3

| SMILES | Post-emergence action against LOLRI in % (LOLRI; Dosage 320 g/ha) | Pre-emergence action against ECHCG in % (ECHCG) | Post-emergence action against MATIN in % (MATIN [1]; dosage 80 g/ha) | Post-emergence action against MATIN in % (MATIN [1]; dosage 320 g/ha) | Pre-emergence action against VERPE in % (VERPE [2]) | Pre-emergence action against MATIN in % (MATIN [3]) | Pre-emergence action at 1280 g/ha against POAAN in % (POAAN) | Post-emergence action at 1280 g/ha against MATIN in % (MATIN [4]) | herbicidal efficacy against harmful plants in the case of pre-emergence treatment (in words) (harmful plants) | Post-emergence action against AMARE in % (AMARE; dosage 80 g/ha) | Post-emergence action against AMARE in % (AMARE; dosage 320 g/ha) | Post-emergence action against VERPE in % (VERPE [5]; dosage 80 g/ha) | Post-emergence action against VERPE in % (VERPE [5]; dosage 320 g/ha) | Post-emergence action at 1280 g/ha against STEME in % (STEME) | Post-emergence action against LOLRI in % (LOLRI; Dosage 80 g/ha) |
| --- | --- | --- | --- | --- | --- | --- | --- | --- | --- | --- | --- | --- | --- | --- | --- |
| CCOC(=O)COc1nn(-c2cnccn2)c(-c2ccccc2)c1Br [Example I-01] | 90% | 80% | 80% | 90% | 90% | 90% | 100% | 90% | good herbicidal efficacy | 80% | 90% | 80% | 90% | 100% | – |
| COC(=O)[C@@H](C)Oc1nn(-c2cnccn2)c(-c2cccc(F)c2)c1Br [Example I-20] | 100% | 90% | – | – | 100% | 90% | 100% | 100% | good herbicidal efficacy | 90% | 100% | 80% | 90% | 100% | 90% |
| COC(=O)[C@@H](C)Oc1nn(-c2cnccn2)c(-c2ccc(F)nc2)c1Cl [Example I-36] | 90% | 100% | – | 80% | 100% | 80% | 100% | 90% | good herbicidal efficacy | 90% | 90% | – | 90% | 100% | – |
| C[C@H](Oc1nn(-c2cnccn2)c(-c2cncc(F)c2)c1Br)C(=O)O [Example I-37] | 90% | 90% | – | 80% | 100% | 90% | 100% | 90% | good herbicidal efficacy | – | 90% | 80% | 90% | 100% | – |
| COC(=O)[C@@H](C)Oc1nn(-c2cnccn2)c(-c2cncc(F)c2)c1Br [Example I-39] | 90% | 100% | 80% | 90% | 100% | 90% | 100% | 90% | good herbicidal efficacy | – | 80% | 80% | 90% | 100% | 90% |
| COC(=O)[C@@H](C)Oc1nn(-c2cnccn2)c(-c2ccc(F)c(F)c2)c1C#N [Example I-46] | 90% | 100% | – | 80% | 100% | 100% | 100% | 90% | good herbicidal efficacy | 80% | 80% | – | 80% | 90% | 90% |
| C[C@@H](Oc1nn(-c2cnccn2)c(-c2cccc(F)c2)c1Br)C(=O)O [Example I-48] | – | 100% | – | – | 100% | 100% | 100% | 100% | good herbicidal efficacy | – | – | – | – | 100% | – |
| CCOC(=O)COc1nn(-c2cnccn2)c(-c2ccc(F)nc2)c1Cl [Example I-53] | – | 100% | 80% | – | 90% | 100% | 100% | 100% | good herbicidal efficacy | 80% | – | 80% | – | 100% | – |
